As a reminder, the EC50 is the concentration needed to bring the measured effect to its halfway point. The low end stands for a more potent agent, the high end for a less potent agent.

The nature of data set [1]: Storage under CO2 atmosphere and 75-76% relative humidity. Format: physicochemical. The conditions noted are these: open container, 1 month; for hydrate (Form IV) or CO2 adduct formation: 1 bar CO2, 75-76% relative humidity; for Form after storage: 1 bar CO2, over saturated NaCl solution (75-76% relative humidity).
Data set [2] in a line: Mechanical stability (IR press and grinding, PXRD). Format: physicochemical. The conditions noted are these: pressed with 10 metric tons for 30 min; vigorously ground. How it is done:
Two types of experiments elucidated the mechanical stability of Compound 1 Form II. First, about 200 mg of Form II was pressed in an IR press with a force of 10 metric tons (13 mm diameter of pellet) for 30 min. The resulting pellets were analyzed by PXRD. Second, about 150 mg of Form II was vigorously ground and analyzed by PXRD.
Two types of experiments elucidated the mechanical stability of Compound 1 Form III. First, about 200 mg of […] was pressed in an IR press with a force of 10 metric tons (13 mm diameter of pellet) for 30 min. The resulting pellets were analyzed by PXRD. Second, about 150 mg of Form III was vigorously ground and analyzed by PXRD.

A short description of data set [3]: Dynamic vapor sorption (DVS) hygroscopicity. The data set is classed as physicochemical. The conditions noted are these: for water content gained: from 0% relative humidity to 85% r.h. The text has this: Projekt Messtechnik SPS11-100n multi-sample water vapor sorption analyzer or Surface Measurement Systems Ltd. DVS-1 water vapour sorption analyzer. The sample was allowed to equilibrate at 50% r.h. before starting a pre-defined humidity program.
Program: 50% r.h.→0% r.h.→95% r.h.→50% r.h., Δr.h.=5%/h
Hygroscopicity was classified as follows: • deliquescent sufficient water is absorbed to form a liquid • very hygroscopic increase of the mass is ≧15% • hygroscopic increase of the mass is less than 15% and greater than or equal to 2% • slightly hygroscopic increase of the mass is less than 2% and greater than or equal to 0.2% • not hygroscopic increase of the mass is less than 0.2% Thermogravimetry Coupled to Fourier-Transform Infrared Spectroscopy (TG-FTIR): […]

A short description of data set [4]: Suspension equilibration of Form I-A in non-solvate forming solvents. The conditions noted are these: at 5° C. and room temperature. Format: physicochemical. How it is done:
109 mg of Compound 1 Form I-A was suspended in 2.0 mL of cyclohexane and sonicated. After stirring for 14 days at room temperature, the solid was collected by filtration and dried under vacuum for 30 minutes to give Form III.
105 mg of Compound 1 Form I-A was suspended in 0.7 mL of 3:2 (v/v) n-heptane/toluene and sonicated. After stirring for 16 days at 5° C., the solid was collected by filtration and dried under vacuum for 30 minutes to give Form III.
102 mg of Compound 1 Form I-A was suspended in 0.7 mL of 10:1 (v/v) n-heptane/toluene and sonicated. After stirring for 16 days at 5° C., the solid was collected by filtration and dried under vacuum for 30 minutes to give Form III.
115 mg of Compound 1 Form I-A was suspended in 0.7 mL of 1:10 (v/v) n-heptane/toluene and sonicated. After stirring for 16 days at 5° C., the solid was collected by filtration and dried under vacuum for 30 minutes to give Form III.

Data set [5] can be described thus: Solid state stability at 60-65° C. Format: physicochemical. The conditions noted are these: closed cap vial. How it is done: Compound 1 Form II, Compound 1 Form III, and compound 1 Form IV were stored at 60-65° C. in a closed cap vial for various lengths of time. Compound 1 Forms II and III remained unchanged under these conditions. Compound 1 Form IV is converted to a mixture of Forms II and III after 10 days at 60-65C.

Data set [6] is described as follows: Solvent-based stability tests in water/methanol. Format: physicochemical. The conditions noted are these: for Relative stability of polymorphic forms: all three temperatures (25, 45, 55° C.); for Form: 6:4 MeOH:water, at least three days. The text has this: A mixture of Compound 1 Forms II, III, IV, and V was slurried in various compositions of methanol/water, or in water, for at least three days at different temperatures.

Data set [7] is described as follows: Reinvestigation of Form IX sample by PXRD and FT-Raman. Format: physicochemical. The conditions noted are these: PXRD and FT-Raman spectroscopy. On the procedure:
198 mg of Compound 1 Form I-A was dissolved in 0.2 mL acetone and 2.0 mL of cyclohexane. The solution was stirred at 5° C. for 4 hours than evaporated at 5° C. for 2 hours to obtain a precipitate. The precipitate was collected by filtration and dried under vacuum for 1 hour to give Form IX (FIGS. 29 and 30). […] The sample was likely incompletely dried but might also correspond to a cyclohexane solvate.

The nature of data set [8]: Solvent-based stability tests in n-heptane/toluene. The data set is classed as physicochemical. The conditions noted are these: 3:2 (v/v) n-heptane:toluene, 6 days. On the procedure: The thermodynamic stability of Form II and Form III as a function of temperature was investigated by suspension equilibration experiments.
54.6 mg of Compound 1 Form III and 61.2 mg of Compound 1 Form II were suspended in […] of 3:2 (v/v) n-heptane:toluene and sonicated. […] In this experiment the starting material likely took up ambient humidity to give Form IV.
18.5 mg of Compound 1 Form III and 28.0 mg of Compound 1 Form II were suspended in 0.4 mL of 3:2 (v/v) n-heptane:toluene and sonicated. After stirring at 60° C. for 6 days the solid was collected by filtration to give Form II.
35.4 mg of Compound 1 Form III and 46.1 mg of Compound 1 Form II were suspended in 0.4 mL of 3:2 (v/v) n-heptane:toluene and sonicated.
40.5 mg of Compound 1 Form III and 45.7 mg of Compound 1 Form II were suspended in 0.4 mL of 3:2 (v/v) n-heptane:toluene and sonicated. After stirring at 55° C. for 6 days the solid was collected by filtration to give Form II.
The solvent-based experiments are in principle thermodynamic stability tests between Compound 1 Forms II and III because mixtures of both forms were suspended. Below 45° C. […] Above 55° C. […] At 50° C. a mixture of both Form II and Form III was obtained in 3:2 (v/v) n-heptane:toluene. This is not unexpected. Close to the transition temperature, the thermodynamic driving force would be expected to be very small leading to slow transition rates. Possibly the kinetics of transformation were too slow for the transformation to occur on the timescale of the experiment. According to these suspension equilibration experiments, Form II and Form III are enantiotropic polymorphs. The thermodynamic transition temperature between Form II and Form III is between 45° C. and 55° C.

Data set [9] in a line: Solvent-based stability tests in n-heptane/ethanol. Format: physicochemical. The conditions noted are these: 95:5 heptane:ethanol. How it is done:
Compound 1 Form II, Compound I Form III, or a mixture of Compound 1 Forms II and III were slurried in 95:5 heptane:ethanol (anhydrous). After one day at various temperatures, a portion of the slurry was filtered and analyzed by XRPD. A solution mediated transition occurs at 45-47° C. in 95:5 heptane:ethanol. Below 45° C.

The target of data set [10] is C. fumiferana EcR (CfEcR-DEF) (Choristoneura fumiferana, UniProt O77240). In words: Cellular gene-switch assay, WT-Cf EcR, luciferase reporter. Format: cell-based. The conditions noted are these: NIH3T3 cells. How it is done: (§1) Cellular gene-switch assays were performed by transfecting the following constructs in mouse embryonic fibroblast cells (NIH3T3). The wild-type D-, E-, and F-domains from a) C. fumiferana EcR (CfEcR-DEF), and b) C. fumiferana EcR with a E274V/V390I/Y410E mutation (VY-CfEcR-DEF), were fused to a GAL4-DBD and placed under the control of the CMV promoter in a pBIND vector (Promega Corporation, Madison, Wis., USA). A chimeric RXR from Homo sapiens RXRb and Locusta migratoria RXR fused to VP16-AD and under the control of an SV40e promoter has previously described. (See, Kothapalli et al., Dev. Genet. 17:319-330 (1995); Palli, et al., FEBS J. 272:5979-5990 (2005); and U.S. Pat. No. 7,935,510 B2). The inducible luciferase reporter plasmid, pFRLuc, (Stratagene Cloning Systems, La Jolla, Calif., USA) contains five copies of the GAL4 response element and a synthetic minimal promoter.
(§2) Under standard assay conditions, Compound 1 was tested at 8 doses from 0.01-33 μM and the final DMSO concentration was 0.33% in both control and treatment wells. When necessary, Compound 1 was tested at lower concentrations. After a 48-hour post-treatment and transfection incubation, the cells were assayed for luciferase activity using the Bright-GloTM Luciferase Assay System (Promega Corporation, Madison, Wis., USA) following the manufacturer's instructions. […]
For orientation: In a reporter assay the amount or activity of a reporter protein is the signal.

Data set [11] deals with C. fumiferana EcR with a E274V/V390I/Y410E mutation (VY-CfEcR-DEF) (Choristoneura fumiferana, UniProt O77240). In words: Cellular gene-switch assay, VY-Cf EcR, luciferase reporter. Format: cell-based. The conditions noted are these: NIH3T3 cells. On the procedure: as §1, §2
Where [12] appears, read: 48-hour incubation, luciferase activity.
Setting [13] is: maximum fold induction relative to a positive control.

As for `CCC[C@@H](N(NC(=O)c1cccc(OC)c1CC)C(=O)c1cc(C)cc(C)c1)C(C)(C)C` [Compound 1 Form II, (R)-3,5-dimethyl-benzoic acid N-(1-tert-butyl-butyl)-N′-(2-ethyl-3-methoxy-benzoyl)-hydrazide], in data set [1], the “hydrate (Form IV) or CO2 adduct formation” value is listed as “no indication of hydrate (Form IV) or CO2 adduct formation” and the Form after storage result is reported as “unchanged Form II”. For the same compound, in data set [2], the “Change in crystalline form after mechanical treatment (PXRD)” value is “no change in crystalline form”. Further, in data set [3], the “Hygroscopicity (DVS)” value is “non- to slightly-hygroscopic” and the water content gained stood at 0.1 wt.-%.
On to `CCC[C@@H](N(NC(=O)c1cccc(OC)c1CC)C(=O)c1cc(C)cc(C)c1)C(C)(C)C` [Compound 1 Form III, (R)-3,5-dimethyl-benzoic acid N-(1-tert-butyl-butyl)-N′-(2-ethyl-3-methoxy-benzoyl)-hydrazide], for which, in data set [1], the “hydrate (Form IV) or CO2 adduct formation” value is reported as “no indication of hydrate (Form IV) or CO2 adduct formation” and the Form after storage entry is on record as “unchanged Form III”. Besides, in [4], the “Relative stability of forms” value is “more stable than Form II”. Further, the “Change in crystalline form after mechanical treatment (PXRD)” value in data set [2] is reported as “no change in crystalline form”. Moreover, in data set [3], the “Hygroscopicity (DVS)” value is “non- to slightly-hygroscopic” and the water content gained is reported as 0.1 wt.-%.
Consider `CCC[C@@H](N(NC(=O)c1cccc(OC)c1CC)C(=O)c1cc(C)cc(C)c1)C(C)(C)C` [Compound 1 Form IV, (R)-3,5-dimethyl-benzoic acid N-(1-tert-butyl-butyl)-N′-(2-ethyl-3-methoxy-benzoyl)-hydrazide], for which the Form after storage result was “II, III, and IV” in [5] (3 days); “II and III” in [5] (10 days); “II and III” in [5] (18 days). For the same compound, in [6] (methanol content of less than 60% volume), the “Relative stability of polymorphic forms” value is “most stable polymorphic form”.
For `CCC[C@@H](N(NC(=O)c1cccc(OC)c1CC)C(=O)c1cc(C)cc(C)c1)C(C)(C)C` [Compound 1 Form IX, (R)-3,5-dimethyl-benzoic acid N-(1-tert-butyl-butyl)-N′-(2-ethyl-3-methoxy-benzoyl)-hydrazide], the “Form on reinvestigation of the sample” value in data set [7] was “spontaneously transformed into Form II”.
On to `CCC[C@@H](N(NC(=O)c1cccc(OC)c1CC)C(=O)c1cc(C)cc(C)c1)C(C)(C)C` [Compound 1 Form V, (R)-3,5-dimethyl-benzoic acid N-(1-tert-butyl-butyl)-N′-(2-ethyl-3-methoxy-benzoyl)-hydrazide], for which, in [6] (methanol content of more than 60% volume), the “Relative stability of polymorphic forms” value is “most stable polymorphic form”.
In the case of `CCC[C@@H](N(NC(=O)c1cccc(OC)c1CC)C(=O)c1cc(C)cc(C)c1)C(C)(C)C` [Compound 1 Forms II and III, (R)-3,5-dimethyl-benzoic acid N-(1-tert-butyl-butyl)-N′-(2-ethyl-3-methoxy-benzoyl)-hydrazide], the Form obtained result is “mixture of Form III and Form IV” in data set [8] (45° C.); “mixture of Form II and Form III” in data set [8] (50° C.); “Form II” in data set [8] (55° C.); “Form II” in data set [8] (60° C.). Further, the “solution mediated transition temperature” value in data set [9] is 45-47 °C.
Regarding `CCC[C@@H](N(NC(=O)c1cccc(OC)c1CC)C(=O)c1cc(C)cc(C)c1)C(C)(C)C` [Compound 1 Forms II, III, IV, and V, (R)-3,5-dimethyl-benzoic acid N-(1-tert-butyl-butyl)-N′-(2-ethyl-3-methoxy-benzoyl)-hydrazide], the Form result in [6] (45° C.) is “IV and V”; in [6] (55° C.), “IV and V”.
Turning to `CCC[C@@H](N(NC(=O)c1cccc(OC)c1CC)C(=O)c1cc(C)cc(C)c1)C(C)(C)C` [Compound 1, (R)-3,5-dimethyl-benzoic acid N-(1-tert-butyl-butyl)-N′-(2-ethyl-3-methoxy-benzoyl)-hydrazide], the figures for the concentration giving a half-maximal response (EC50) in [10] (setting [12]) and in data set [11] (setting [12]) were 1.8 nM and 0.133 nM, respectively. In addition, the entries for the “Rel Max FI” value in data set [10] (setting [13]) and in [11] (setting [13]) were 0.99 and 0.88, respectively.

Source of the values: US8946294B2, “Crystalline diacylhydrazine and the use thereof” (Intrexon Corporation, priority 2011, dated 2015).
